# Measured values as given in patent publication US5859007A, “CCK or gastrin modulating benzo [b][1,4] diazepines derivatives” (Glaxo Wellcome Inc., priority 1994, dated 1999).
# Test system: isolated guinea pig gallbladder
# Experiment: Functional activity in isolated guinea pig gallbladder preparation
# Assay type: cell-based
# Settings: expressed as % CCK-induced maximal response; for activation at 1 µM / activation at 30 µM: Cavia porcellus; for activation at 1 µM: read-out: %Contraction (1 × 10^-6 M); for activation at 30 µM: 3 × 10^-5 M test compound, read-out: % Contraction (3 × 10^-5 M)
# Protocol: 3. GUINEA PIG GALL BLADDER ASSAY
# Gallbladders are removed from guinea pigs sacrificed by cervical dislocation. The isolated gallbladders are cleaned of adherent connective tissue and cut into two rings from each animal (2-4 mm in length). The rings are subsequently suspended in organ chambers containing a physiological salt solution (118.4 mM NaCl, 4.7 mM KCl, 1.2 mM MgSO4, 2.5 mM CaCl2, 1.2 mM KH2 […], 25 mM NaHCO3, 11.1 mM dextrose). The bathing solution is maintained at 37° C. and aerated with 95% O2 /5% CO2. Tissues are connected via gold chains and stainless steel mounting wires to isometric force displacement transducers (Grass, Model FT03 D). Responses are then recorded on a polygraph (Grass, Model 7E).
# Rings are gradually stretched (over a 120 min. period) to a basal resting tension of 1 gm which is maintained throughout the experiment. During the basal tension adjustment period, the rings are exposed to acetylcholine (10^-6 M) four times to verify tissue contractility. The tissues are then exposed to a submaximal dose of sulfated CCK-8 (Sigma, 3×10^-9 M). After obtaining a stable response, the tissues are washed out 3 times rapidly and every 5 to 10 minutes for 1 hour to reestablish a stable baseline.
# Compounds are dissolved in dimethylsulfoxide ([…]) followed by a concentration-response curve to sulfated CCK-8 (10^-10 to 10^-6 M) in the presence of the highest dose of the test compound. As a final test, ACH (10 mM) is added to induce maximal contraction. A minimum of three determinations of activity are made for each test compound.
Structure (SMILES),activation at 1 µM (1 × 10^-6 M test compound) [%],%Contraction (1 × 10^-6 M) (1 × 10^-6 M test compound) [%],activation at 30 µM [%]
"COc1ccc(N(C(=O)CN2C(=O)C(Cc3cccc4ccccc34)C(=O)N(c3ccccc3)c3ccccc32)C(C)C)cc1 (centres unmarked) [Example 34, N-Isopropyl-N-(4-methoxy-phenyl)-2-(3-naphthalen-1-ylmethyl-2,4-dioxo-5-phenyl-2,3,4,5-tetrahydro-benzo[b][1,4]diazepin-1-yl) acetamide]",47,–,–
"COc1ccc(N(C(=O)CN2C(=O)C(C)(Cc3cccc4ccccc34)C(=O)N(c3ccccc3)c3ccccc32)C(C)C)cc1 (centres unmarked) [Example 35, N-Isopropyl-N-(4-methoxy-phenyl)-2-(3-methyl-3-naphthalen-1-ylmethyl-2,4-dioxo-5-phenyl-2,3,4,5-tetrahydro-benzo[b][1,4]diazepin-1-yl) acetamide]",44,–,–
"COc1ccc(N(C(=O)CN2C(=O)C(Cc3ccc4ccccc4c3)C(=O)N(c3ccccc3)c3ccccc32)C(C)C)cc1 (centres unmarked) [Example 36, N-Isopropyl-N-(4-methoxy-phenyl)-2-(3-naphthalen-2-ylmethyl-2,4-dioxo-5-phenyl-2,3,4,5-tetrahydro-benzo[b][1,4]diazepin-1-yl) acetamide]",19,–,–
"COc1ccc(N(C(=O)CN2C(=O)C(Cc3csc4ccccc34)C(=O)N(c3ccccc3)c3ccccc32)C(C)C)cc1 (centres unmarked) [Example 37, 2-(3-Benzo[b]thiophen-3-ylmethyl-2,4-dioxo-5-phenyl-2,3,4,5-tetrahydro-benzo[b][1,4]diazepin-1-yl)-N-isopropyl-N-(4-methoxy-phenyl) acetamide]",46,–,–
"COc1ccc(N(C(=O)CN2C(=O)C(C)(Cc3ccc4ccccc4c3)C(=O)N(c3ccccc3)c3ccccc32)C(C)C)cc1 (centres unmarked) [Example 38, N-Isopropyl-N-(4-methoxy-phenyl)-2-(3-methyl-3-naphthalen-2-ylmethyl-2,4-dioxo-5-phenyl-2,3,4,5-tetrahydro-benzo[b][1,4]diazepin-1-yl) acetamide]",30,–,–
"COc1ccc(N(C(=O)CN2C(=O)C(CC(=O)Nc3ccccc3)C(=O)N(c3ccccc3)c3ccccc32)C(C)C)cc1 (centres unmarked) [Example 39, 2-(2,4-dioxo-5-phenyl-3-phenylcarbamoylmethyl-2,3,4,5-tetrahydro-benzo[b][1,4]diazepin-1-yl)-N-isopropyl-N-(4-methoxy-phenyl)-acetamide]",–,57,–
"COc1ccc(N(C(=O)CN2C(=O)C(C)(Cc3csc4ccccc34)C(=O)N(c3ccccc3)c3ccccc32)C(C)C)cc1 (centres unmarked) [Example 40, 2-(3-Benzo[b]thiophen-3-ylmethyl-3-methyl-2,4-dioxo-5-phenyl-2,3,4,5-tetrahydro-benzo[b][1,4]diazepin-1-yl)-N-isopropyl-N-(4-methoxy-phenyl) acetamide]",10,–,–
COc1ccc(N(C(=O)CN2C(=O)C(C)(CC(=O)Nc3ccccc3)C(=O)N(c3ccc(Cl)cc3)c3ccccc32)C(C)C)cc1 (centres unmarked) [Example 41],40,–,–
"COc1ccc(N(C(=O)CN2C(=O)C(Cc3nn(Cc4ccccc4)c4ccccc34)(OC)C(=O)N(c3ccccc3)c3ccccc32)C(C)C)cc1 (centres unmarked) [Example 42, 2-[3-(1-Benzyl-1H-Indazol-3-ylmethyl)-3-methoxy-2,4-dioxo-5-phenyl-2,3,4,5-tetrahydro-benzo[b][1,4]diazepin-1-yl]-N-isopropyl-N-(4-methoxy-phenyl) acetamide]",16,–,–
"COc1ccc(N(C(=O)CN2C(=O)C(Cc3n[nH]c4ccccc34)(OC)C(=O)N(c3ccccc3)c3ccccc32)C(C)C)cc1 (centres unmarked) [Example 43, 2-[3-(1H-Indazol-3-ylmethyl)-3-methoxy-2,4-dioxo-5-phenyl-2,3,4,5-tetrahydro-benzo[b][1,4]diazepin-1-yl]-N-isopropyl-N-(4-methoxy-phenyl) acetamide]",–,–,61
"COc1ccc(N(C(=O)CN2C(=O)C(Cc3nn(C)c4ccccc34)C(=O)N(c3ccccc3)c3ccccc32)C(C)C)cc1 (centres unmarked) [Example 44, N-Isopropyl-N-(4-methoxy-phenyl)-2-[3-(1-methyl-1H-indazol-3-ylmethyl)-2,4-dioxo-5-phenyl-2,3,4,5-tetrahydro-benzo[b][1,4]diazepin-1-yl]acetamide]",57,–,83
"COc1ccc(N(C(=O)CN2C(=O)C(C)(Cc3nn(C)c4ccccc34)C(=O)N(c3ccccc3)c3ccccc32)C(C)C)cc1 (centres unmarked) [Example 45, N-Isopropyl-N-(4-methoxy-phenyl)-2-[3-(1-methyl-1H-indazol-3-ylmethyl)-3-methyl-2,4-dioxo-5-phenyl-2,3,4,5-tetrahydro-benzo[b][1,4]diazepin-1-yl]acetamide]",57,–,–
"COc1ccc(N(C(=O)CN2C(=O)C(Cc3nccn3-c3ccccc3)C(=O)N(c3ccccc3)c3ccccc32)C(C)C)cc1 (centres unmarked) [Example 46, 2-(2,4-Dioxo-5-phenyl-3-(1-phenyl-imidazo-2-yl)methyl-2,3,4,5-tetrahydro-benzo[b][1,4]diazepin-1-yl)-N-isopropyl-N-(4-methoxy)-phenyl acetamide]",6,–,6
"COc1ccc(N(C(=O)CN2C(=O)C(Cc3noc4ccccc34)C(=O)N(c3ccccc3)c3ccccc32)C(C)C)cc1 (centres unmarked) [Example 47, 2-(3-Benzo[d]isoxazol-3-ylmethyl-2,4-dioxo-5-phenyl-2,3,4,5-tetrahydro-benzo[b][1,4]diazepin-1-yl)-N-isopropyl-N-(4-methoxy-phenyl) acetamide]",92,–,–
"COc1ccc(N(C(=O)CN2C(=O)C(Cc3noc4ncccc34)C(=O)N(c3ccccc3)c3ccccc32)C(C)C)cc1 (centres unmarked) [Example 48, N-Isopropyl-2-(3-isoxazolo[5,4-b]pyridin-3-ylmethyl-2,4-dioxo-5-phenyl-2,3,4,5-tetrahydro-benzo[b][1,4]diazepin-1-yl)-N-(4-methoxy-phenyl) acetamide]",–,–,75
"COc1ccc(N(C(=O)CN2C(=O)C(Cc3n[nH]c4ncccc34)C(=O)N(c3ccccc3)c3ccccc32)C(C)C)cc1 (centres unmarked) [Example 50, 2-[2,4-Dioxo-5-phenyl-3-(1H-pyrazolo[3,4-b]pyridin-3-ylmethyl)-2,3,4,5-tetrahydro-benzo[b][1,4]diazepin-1-yl]-N-isopropyl-N-(4-methoxy-phenyl)-acetamide]",83,–,94
"COc1ccc(N(C(=O)CN2C(=O)C(Cc3n[nH]c4c3CCCC4)C(=O)N(c3ccccc3)c3ccccc32)C(C)C)cc1 (centres unmarked) [Example 51, 2-[2,4-Dioxo-5-phenyl-3-(4,5,6,7-tetrahydro-1H-indazol-3-ylmethyl)-2,3,4,5-tetrahydro-benzo[b][1,4]diazepin-1-yl]-N-isopropyl-N-(4-methoxy-phenyl)-acetamide]",82,–,83
"CC(C)N(C(=O)CN1C(=O)C(Cc2n[nH]c3ccccc23)C(=O)N(c2ccccc2)c2ccccc21)c1ccc(C(F)(F)F)cc1 (centres unmarked) [Example 52, 2-[3-(1H-Indazol-3-ylmethyl)-2,4-dioxo-5-phenyl-2,3,4,5-tetrahydro-benzo[b][1,4]diazepin-1-yl]-N-isopropyl-N-(4-trifluoromethyl-phenyl)-acetamide]",70,–,96
"COc1ccc(N(C(=O)CN2C(=O)C(Cc3n[nH]c4ccccc34)(OC)C(=O)N(c3cccnc3)c3ccccc32)C(C)C)cc1 (centres unmarked) [Example 53, 2-[3-(1H-Indazol-3-ylmethyl)-3-methoxy-2,4-dioxo-5-pyridin-3-yl-2,3,4,5-tetrahydro-benzo[b][1,4]diazepin-1-yl]-N-isopropyl-N-(4-methoxy-phenyl)-acetamide]",96,–,103
"COc1ccc(N(C(=O)CN2C(=O)C(Cc3cc(C)nn3Cc3ccccc3)C(=O)N(c3ccccc3)c3ccccc32)C(C)C)cc1 (centres unmarked) [Example 54, 2-[3-(2-Benzyl-5-methyl-2H-pyrazol-3ylmethyl)-2,4-dioxo-5-phenyl-2,3,4,5-tetrahydro-benzo[b][1,4]diazepin-1-yl]-N-isopropyl-N-(4-methoxy-phenyl)-acetamide]",63,–,43
"COc1ccc(N(C(=O)CN2C(=O)C(Cc3cc(C)n[nH]3)C(=O)N(c3ccccc3)c3ccccc32)C(C)C)cc1 (centres unmarked) [Example 55, N-Isopropyl-N-(4-methoxy-phenyl)-2-[3-(5-methyl-2H-pyrazol-3ylmethyl)-2,4-dioxo-5-phenyl-2,3,4,5-tetrahydro-benzo[b][1,4]diazepin-1-yl]-acetamide]",21,–,–
"COc1ccc(N(C(=O)CN2C(=O)C(Cn3cnc4ccccc43)C(=O)N(c3ccccc3)c3ccccc32)C(C)C)cc1 (centres unmarked) [Example 56, 2-(3-Benzoimidazol-1-ylmethyl-2,4-dioxo-5-phenyl-2,3,4,5-tetrahydro-benzo[b][1,4]diazepin-1-yl]-N-isopropyl-N-(4-methoxy-phenyl)-acetamide]",90,–,98
"CC(C)N(C(=O)CN1C(=O)C(Cc2n[nH]c3ccccc23)C(=O)N(c2ccccc2)c2ccccc21)c1ccc(F)cc1 (centres unmarked) [Example 57, N-(4-Fluoro-phenyl)-2-[3-(1H-indazol-3-ylmethyl)-2,4-dioxo-5-phenyl-2,3,4,5-tetrahydro-benzo[b][1,4]diazepin-1-yl]-N-isopropyl-acetamide]",99,–,134
